The record followed here is patent US20230174538A1, “Tricyclic heterocycles” (Merck Patent GmbH, priority 2020, published 2023).

The subject of the assay is YAP-TEAD interaction. The assay is described as follows: SK-HEP-1 reporter assay (8xTEAD responsive elements driving NanoLuc luciferase). It is filed as cell-based. The note with it: Homo sapiens, SK-HEP1, SK-HEP-1 reporter assay. Here is the method:
To identify inhibitors of YAP-TEAD interaction, 8×TEAD responsive elements driving the NanoLuc® luciferase gene were stably integrated into SK-HEP-1 cells (ECACC #: 91091816).
For the assay, cells were treated in duplicates with the test compounds in a 10-point dose, with the top concentration starting at 30 μM (final concentration in assay). After a 24 hour incubation at 37° C., 95% rH, and 5% CO2, a luciferase substrate/lysis reagent mix (NanoGlo™, Promega) was added to the cells, allowing the quantification of cellular luciferase activity.
Cell Media: The cells were cultured in the following media: MEM, +10% FBS, +1× GlutaMAX, +1 mM Sodium-Pyruvate, +100 μM Non-essential amino acids, +0.1 mg/ml Hygromycin. The media used for the assay was: MEM (w/o Phenol Red), +10% FBS, +1× GlutaMAX, +1 mM Sodium-Pyruvate, +100 μM Non-essential amino acids, +0.5% Pen/Strep
Reagents: The reagents used are listed below:
Cell culture: The cells were examined using an inverted microscope to check for health and cell density. To dissociate adherent cells, the monolayer of cells was washed once with pre-warmed PBS. After removing the PBS, 3 ml pre-warmed Accutase® was added to a F75 flask, dispersed evenly and the flask was allowed to sit in incubator for ˜4-5 minutes.
When a single cell suspension was obtained, 7 ml of prewarmed growth media was added and resuspended with the cells. The cell suspension was transferred to a sterile 15 ml conical centrifuge tube, and spun for 5 min at 300×g, RT. The supernatant was discarded and the pellet was resuspended in 10 ml of pre-warmed growth media.
The total cell count was determined, and 20 μl of the desired cell number was added to each well of a 384 well plate using a Multidrop Combi. The plates were then incubated for 24 hours at 37° C., 95% rH, and 5% CO2.
Compound treatment: 24 hours after seeding, the cells were treated with compounds.
A 1:333 dilution of compounds, diluted in DMSO, was made to get a final concentration of 0.3% DMSO per well. To transfer the compounds to the assay plate, 120 nl was shot from Labcyte low dead volume plates to the cell plates containing 20 μl media/well with the ECHO 555 liquid handling system.
After treatment, the cells were fed with 20 μl fresh pre-warmed assay media using a Multidrop combi.
The assay plates were then incubated for another 24 h at 37° C., 95% rH, and 5% CO2.
Luciferase readout: 24 h after treatment, the plates were taken out of the incubator and were allowed to equilibrate to RT. 30 μl of NanoGlo® reagent was added to the plates in the dark. Plates were shaken for 20 min on a Teleshake (˜1500 rpm) in the dark. The luminescence was then measured using an EnVision microplate reader. The IC50 values were generated using Genedata Screener®.
(In general: A reporter such as luciferase makes a cellular process visible.)
The molecule `CC(C)CC(NC(=O)c1ccc2c(c1)c1cn(C)nc1n2-c1ccc(C(F)(F)F)cc1)c1nc[nH]n1` (stereo not shown) [Example B24, 2-methyl-N-[3-methyl-1-(1H-1,2,4-triazol-3-yl)butyl]-8-[4-(trifluoromethyl)phenyl]-2H,8H-pyrazolo[3,4-b]indole-5-carboxamide] displayed an IC50 of 100 to 10000 nM.
Molecule `Cn1cc2c3cc(C(=O)NC4CCc5cn[nH]c5C4)ccc3n(-c3ccc(C(F)(F)F)cc3)c2n1` (stereo not shown) [Example B25, 2-methyl-N-(4,5,6,7-tetrahydro-1H-indazol-6-yl)-8-[4-(trifluoromethyl)phenyl]-2H,8H-pyrazolo[3,4-b]indole-5-carboxamide] had an IC50 of 100 to 10000 nM.
The value for `Cn1cc2c3cc(C(=O)N(CCO)Cc4ccnn4C)ccc3n(-c3ccc(C(F)(F)F)cc3)c2n1` [Example B27, N-(2-hydroxyethyl)-2-methyl-N-[(1-methyl-1H-pyrazol-5-yl)methyl]-8-[4-(trifluoromethyl)phenyl]-2H,8H-pyrazolo[3,4-b]indole-5-carboxamide] was 10 to 100 nM.
In the case of `Cn1cc2c3cc(C(=O)NCCc4nc(C5CC5)n[nH]4)ccc3n(-c3ccc(C(F)(F)F)cc3)c2n1` [Example B28, N-[2-(3-cyclopropyl-1H-1,2,4-triazol-5-yl)ethyl]-2-methyl-8-[4-(trifluoro-methyl)phenyl]-2H,8H-pyrazolo[3,4-b]indole-5-carboxamide], the IC50 is 100 to 10000 nM.
For `Cn1cc2c3cc(C(=O)NCc4n[nH]c5c4CCCC5)ccc3n(-c3ccc(C(F)(F)F)cc3)c2n1` [Example B29, 2-methyl-N-[(4,5,6,7-tetrahydro-1H-indazol-3-yl)methyl]-8-[4-(trifluoromethyl)phenyl]-2H,8H-pyrazolo[3,4-b]indole-5-carboxamide] the value was over 10000 nM; for `Cn1cc2c3cc(C(=O)N4CC(c5ocnc5CO)C4)ccc3n(-c3ccc(C(F)(F)F)cc3)c2n1` [Example B30, [5-(1-{2-methyl-8-[4-(trifluoro-methyl)phenyl]-2H,8H-pyrazolo[3,4-b]indole-5-carbonyl}azetidin-3-yl)-1,3-oxazol-4-yl]methanol], over 10000 nM; for `Cn1cc2c3cc(C(=O)NC(c4ncon4)C4CC4)ccc3n(-c3ccc(C(F)(F)F)cc3)c2n1` (stereo not shown) [Example B31, N-[cyclopropyl(1,2,4-oxadiazol-3-yl)methyl]-2-methyl-8-[4-(trifluoromethyl)phenyl]-2H,8H-pyrazolo[3,4-b]indole-5-carboxamide], 10 to 100 nM.
The value for `CC1CN(C(=O)c2ccc3c(c2)c2cn(C)nc2n3-c2ccc(C(F)(F)F)cc2)CC(CCO)O1` (stereo not shown) [Example B33, 2-(6-methyl-4-{2-methyl-8-[4-(trifluoromethyl)phenyl]-2H,8H-pyrazolo[3,4-b]indole-5-carbonyl}morpholin-2-yl)ethan-1-ol] was 100 to 10000 nM.
As for `COCC(NC(=O)c1ccc2c(c1)c1cn(C)nc1n2-c1ccc(C(F)(F)F)cc1)c1ccc(C)o1` (stereo not shown) [Example B34, N-[2-methoxy-1-(5-methylfuran-2-yl)ethyl]-2-methyl-8-[4-(trifluoromethyl)phenyl]-2H,8H-pyrazolo[3,4-b]indole-5-carboxamide], the IC50 is 10 to 100 nM.
The value for `Cn1cc2c3cc(C(=O)N4CC(F)(F)CC4(C)CO)ccc3n(-c3ccc(C(F)(F)F)cc3)c2n1` (stereo not shown) [Example B35, (4,4-difluoro-2-methyl-1-{2-methyl-8-[4-(trifluoromethyl)phenyl]-2H,8H-pyrazolo[3,4-b]indole-5-carbonyl}pyrrolidin-2-yl)methanol] was over 10000 nM; that for `Cn1cc2c3cc(C(=O)NC4CCCc5c4cnn5C)ccc3n(-c3ccc(C(F)(F)F)cc3)c2n1` (stereo not shown) [Example B37, 2-methyl-N-(1-methyl-4,5,6,7-tetrahydro-1H-indazol-4-yl)-8-[4-(trifluoromethyl)phenyl]-2H,8H-pyrazolo[3,4-b]indole-5-carboxamide] was 100 to 10000 nM; that for `Cn1cc2c3cc(C(=O)NCCc4cc(O)n(C)n4)ccc3n(-c3ccc(C(F)(F)F)cc3)c2n1` [Example B38, N-[2-(5-hydroxy-1-methyl-1H-pyrazol-3-yl)ethyl]-2-methyl-8-[4-(trifluoromethyl)phenyl]-2H,8H-pyrazolo[3,4-b]indole-5-carboxamide] was over 10000 nM.
`CC(NC(=O)c1ccc2c(c1)c1cn(C)nc1n2-c1ccc(C(F)(F)F)cc1)c1cc[nH]n1` (stereo not shown) [Example B39, 2-methyl-N-[1-(lH-pyrazol-5-yl)ethyl]-8-[4-(trifluoromethyl)phenyl]-2H,8H-pyrazolo[3,4-b]indole-5-carboxamide] registered an IC50 of 10 to 100 nM.
For `Cn1cc2c3cc(C(=O)N4CCn5nccc5C4CO)ccc3n(-c3ccc(C(F)(F)F)cc3)c2n1` (stereo not shown) [Example B40] the value was over 10000 nM.
The value for `Cn1cc2c3cc(C(=O)NCC4(N5CCOCC5)CC4)ccc3n(-c3ccc(C(F)(F)F)cc3)c2n1` [Example B42, 2-methyl-N-{[1-(morpholin-4-yl)cyclopropyl]methyl}-8-[4-(trifluoromethyl)phenyl]-2H,8H-pyrazolo[3,4-b]indole-5-carboxamide] was 100 to 10000 nM; that for `Cn1cc2c3cc(C(=O)NC4CCCc5[nH]ccc54)ccc3n(-c3ccc(C(F)(F)F)cc3)c2n1` (stereo not shown) [Example B44, 2-methyl-N-(4,5,6,7-tetrahydro-1H-indol-4-yl)-8-[4-(trifluoromethyl)phenyl]-2H,8H-pyrazolo[3,4-b]indole-5-carboxamide] was 100 to 10000 nM; that for `Cc1[nH]cnc1CNC(=O)c1ccc2c(c1)c1cn(C)nc1n2-c1ccc(C(F)(F)F)cc1` [Example B46, 2-methyl-N-[(5-methyl-1H-imidazol-4-yl)methyl]-8-[4-(trifluoromethyl)phenyl]-2H,8H-pyrazolo[3,4-b]indole-5-carboxamide] was 100 to 10000 nM.
For `Cn1cc2c3cc(C(=O)N4CC(O)(Cc5ccn[nH]5)C4)ccc3n(-c3ccc(C(F)(F)F)cc3)c2n1` [Example B47, 1-{2-methyl-8-[4-(trifluoromethyl)-phenyl]-2H,8H-pyrazolo[3,4-b]indole-5-carbonyl}-3-[(1H-pyrazol-5-yl)methyl]azetidin-3-ol] the value was 100 to 10000 nM; for `Cn1cc2c3cc(C(=O)N4CCCC4C4CCCO4)ccc3n(-c3ccc(C(F)(F)F)cc3)c2n1` (stereo not shown) [Example B48, 1-{2-methyl-8-[4-(trifluoromethyl)phenyl]-2H,8H-pyrazolo[3,4-b]indole-5-carbonyl}-2-(oxolan-2-yl)pyrrolidine], 100 to 10000 nM.
In the case of `COCc1ocnc1CNC(=O)c1ccc2c(c1)c1cn(C)nc1n2-c1ccc(C(F)(F)F)cc1` [Example B49, N-{[5-(methoxymethyl)-1,3-oxazol-4-yl]methyl}-2-methyl-8-[4-(trifluoromethyl)phenyl]-2H,8H-pyrazolo[3,4-b]indole-5-carboxamide], the IC50 lay in the range of 10 to 100 nM.
`CN(Cc1c[nH]cn1)C(=O)c1ccc2c(c1)c1cn(C)nc1n2-c1ccc(C(F)(F)F)cc1` [Example B50, N-[(1H-imidazol-4-yl)methyl]-N,2-dimethyl-8-[4-(trifluoromethyl)phenyl]-2H,8H-pyrazolo[3,4-b]indole-5-carboxamide] gave an IC50 of 100 to 10000 nM.
The molecule `COCC1CCN(C(=O)c2ccc3c(c2)c2cn(C)nc2n3-c2ccc(C(F)(F)F)cc2)C1` (stereo not shown) [Example B51, 3-(methoxymethyl)-1-{2-methyl-8-[4-(trifluoromethyl)phenyl]-2H,8H-pyrazolo[3,4-b]indole-5-carbonyl}pyrrolidine] returned an IC50 of 100 to 10000 nM.
For `Cn1cc2c3cc(C(=O)N4CCCC4c4ncc[nH]4)ccc3n(-c3ccc(C(F)(F)F)cc3)c2n1` (stereo not shown) [Example B52, 2-(1-{2-methyl-8-[4-(trifluoromethyl)phenyl]-2H,8H-pyrazolo[3,4-b]indole-5-carbonyl}pyrrolidin-2-yl)-1H-imidazole] the value was over 10000 nM.
Consider `Cn1cc2c3cc(C(=O)N4CCCC4Cn4cncn4)ccc3n(-c3ccc(C(F)(F)F)cc3)c2n1` (stereo not shown) [Example B54, 1-[(1-{2-methyl-8-[4-(trifluoromethyl)phenyl]-2H,8H-pyrazolo[3,4-b]indole-5-carbonyl}pyrrolidin-2-yl)methyl]-1H-1,2,4-triazole], for which the IC50 was over 10000 nM.
For `Cn1cc2c3cc(C(=O)NC(c4cccnc4)C4CC4)ccc3n(-c3ccc(C(F)(F)F)cc3)c2n1` (stereo not shown) [Example B55, N-[cyclopropyl(pyridin-3-yl)methyl]-2-methyl-8-[4-(trifluoromethyl)phenyl]-2H,8H-pyrazolo[3,4-b]indole-5-carboxamide] the value was 10 to 100 nM.

In general, IC50 refers to the concentration that inhibits the measured activity by half. The low end stands for greater potency, the high end for weaker potency.
